# Results reported in publication PMC9145483, “Substituted Purines as High-Affinity Histamine H3 Receptor Ligands” (Pharmaceuticals, 2022).
# Read-outs that look alike come from different tables or passages of the source.
# How the values were obtained:
# human histamine H3R = biological target: T1, human histamine H3R (Homo sapiens, UniProt Q9Y5N1); assay: Human histamine H3 radioligand displacement ([3H]Nα-methylhistamine); assay type: binding
# T1 construct: expressed in transfected cells; host or cells: HEK-293 cells, stably expressing; membrane preparations
# Protocol: Radioligand displacement assays at the human histamine H3R were performed, as published previously [28]. […] At least three independent experiments of each compound in duplicate were conducted with 11 concentrations. Obtained data was analyzed with GraphPad Prism 7 (San Diego, CA, USA) using non-linear least squares fit and the equation “one site competition” (representative Figures given in the SI). Ki values were calculated according to the Cheng–Prusoff equation [29] and are reported as means with a 95% confidence interval. Statistical analyses were performed on the -logKi values and were converted to mean Ki values and a 95% confidence interval.
# HEK-293 cell line = assay: MTT cytotoxicity assay, HEK-293; assay type: cell-based; details: HEK-293, MTT, 48 h, 0.1 to 100 μM
# Protocol: (§1) The potential general nephrotoxic, neurotoxic and hepatotoxic effects of selected H3R ligands 3d and 3h were investigated to determine their influence on the viability of normal HEK-293, neuroblastoma SH-SY5Y and hepatoma HepG2 cell lines by a colorimetric MTT reduction assay (Table 2).
# (§2) Cultures of HEPG2 (ATCC-HB-8065 TM), HEK293 (ATCC CRL-1573 TM) and SHSY-5Y (ATCC CRL-2266 TM) cell lines were used as experimental models. Cells were maintained in a DMEM culture medium supplemented with 10% Foetal Bovine Serum (FBS), in an incubator at 37 °C and a humidified atmosphere with 5% CO2. Cells were seeded on culture plates, were allowed to grow for 24 h and then were treated with the synthesized compounds for 48 h with 100, 10, 1 and 0.1 µM concentrations. Negative cell death control, corresponding to untreated cells, and positive cell death control, corresponding to cells treated with 10% SDS, were maintained.
# (§3) In a colorimetric MTT reduction assay, sterile 96-well culture plates were used. An amount of 2000–2500 cells per well were seeded. Upon completion of treatment, the culture medium was vacuum aspirated and washed with 1x PBS, and then 100 μL of 0.5 mg/mL MTT solution was added for a period of 4 h at 37 °C for formazan crystal formation. […] The absorbance of each well was measured on the Synergy HTX microplate reader at 570 nm wavelength.
# [1] = MTT cytotoxicity assay, HEK-293; assay type: cell-based; details: human, HEK-293 cells, HEK-293, MTT, 0.1 to 100 μM
# Protocol: as §1, §2, §3
# [2] = test system: neuroblastoma SH-SY5Y cell line; assay: MTT cytotoxicity assay, SH-SY5Y; assay type: cell-based; details: 48 h, 0.1 to 100 μM
# Protocol: as §1, §2, §3
# [3] = MTT cytotoxicity assay, SH-SY5Y; assay type: cell-based; details: human, SH-SY5Y neuroblastoma cells, 0.1 to 100 μM
# Protocol: as §1, §2, §3
# hepatoma HepG2 cell line = assay: MTT cytotoxicity assay, HepG2; assay type: cell-based; details: 48 h, 0.1 to 100 μM
# Protocol: as §1, §2
# (§4) In a colorimetric MTT reduction assay, sterile 96-well culture plates were used. An amount of 2000–2500 cells per well were seeded. Upon completion of treatment, the culture medium was vacuum aspirated and washed with 1x PBS, and then 100 μL of 0.5 mg/mL MTT solution was added for a period of 4 h at 37 °C for formazan crystal formation. At the end of the 4 h, 100 μL of 10% SDS in HCl was added and kept overnight in an incubator at 37 °C to dissolve the formed crystals. The absorbance of each well was measured on the Synergy HTX microplate reader at 570 nm wavelength.
# [4] = MTT cytotoxicity assay, HepG2; assay type: cell-based; details: human, HepG2 hepatoma cells, 0.1 to 100 μM
# Protocol: as §1, §2, §4
# H3R = biological target: H3R; design: method as in PMID 30025902, PMID 31176569; details: H3R affinity of previous ligands; cited from earlier work
# [5] = [3H]Nα-methylhistamine 2 nM, HEK-293 membranes stably expressing human H3R, mean [95% CI], at least three experiments in duplicate, read-out: Ki (nM) [95% CI nM]
# [6] = restated in Table 3, read-out: Biological Activity Ki
# T1 sequence (Q9Y5N1 whole entry): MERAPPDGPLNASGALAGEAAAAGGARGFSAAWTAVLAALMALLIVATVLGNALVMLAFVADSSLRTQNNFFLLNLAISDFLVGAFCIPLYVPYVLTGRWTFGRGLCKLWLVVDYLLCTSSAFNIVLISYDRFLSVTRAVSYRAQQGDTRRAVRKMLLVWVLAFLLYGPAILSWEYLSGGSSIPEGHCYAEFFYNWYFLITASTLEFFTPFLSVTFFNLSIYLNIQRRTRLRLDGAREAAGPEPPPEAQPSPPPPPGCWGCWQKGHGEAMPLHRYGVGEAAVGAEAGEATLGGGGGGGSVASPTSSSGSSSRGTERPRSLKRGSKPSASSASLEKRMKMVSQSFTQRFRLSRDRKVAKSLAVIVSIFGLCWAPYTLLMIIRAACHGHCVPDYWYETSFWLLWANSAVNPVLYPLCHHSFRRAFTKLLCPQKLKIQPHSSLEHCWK
Compound,Ki (human histamine H3R; [5]),Ki (human histamine H3R; [6]),also measured
"N#Cc1ccc(Cn2cnc3c(N4CCC(N5CCCCC5)CC4)ncnc32)cc1 [Compound 3c, 4-((6-([1,4’-Bipiperidin]-1’-yl)-9H-purin-9-yl)methyl)benzonitrile]",28.8 nM,28.8 nM,
"N#Cc1ccc(Cn2cnc3c(N4CCC(N5CCCCC5)CC4)nc(Cl)nc32)cc1 [Compound 3g, 4-((6-([1,4’-Bipiperidin]-1’-yl)-2-chloro-9H-purin-9-yl)methyl)benzonitrile]",77.8 nM,77.8 nM,
"Clc1ccc(Cn2cnc3c(N4CCC(N5CCCCC5)CC4)ncnc32)cc1 [Compound 3b, 6-([1,4’-Bipiperidin]-1’-yl)-9-(4-chlorobenzyl)-9H-purine]",39.4 nM,39.4 nM,
"Clc1nc(N2CCC(N3CCCCC3)CC2)c2ncn(Cc3c(Cl)cccc3Cl)c2n1 [Compound 3h, 6-([1,4’-Bipiperidin]-1’-yl)-2-chloro-9-(2,6-dichlorobenzyl)-9H-purine]",5.51 nM,5.5 nM,IC50 (HEK-293 cell line): 54.3 ± 3.54 µM; IC50 at 48 h [1]: > 30 µM; IC50 [2]: 32.4 ± 4.75 µM; IC50 at 48 h [3]: > 30 µM; IC50 (hepatoma HepG2 cell line): 33.8 ± 4.29 µM; IC50 at 48 h [4]: > 30 µM
"Clc1cccc(Cl)c1Cn1cnc2c(N3CCC(N4CCCCC4)CC3)ncnc21 [Compound 3d, 6-([1,4’-Bipiperidin]-1’-yl)-9-(2,6-dichlorobenzyl)-9H-purine]",2.91 nM,,"Ki (human histamine H3R; Table 3, read-out: Biological Activity −logKi (converted)): 2.88 nM; IC50 (hepatoma HepG2 cell line): 57.6 ± 12 µM; IC50 at 48 h [4]: > 30 µM"
"Clc1ccc(Cn2cnc3c(N4CCC(N5CCCCC5)CC4)nc(Cl)nc32)cc1 [Compound 3f, 6-([1,4’-Bipiperidin]-1’-yl)-2-chloro-9-(4-chlorobenzyl)-9H-purine]",44.6 nM,44.6 nM,
"Fc1ccc(Cn2cnc3c(N4CCC(N5CCCCC5)CC4)nc(Cl)nc32)cc1 [Compound 3e, 6-([1,4’-Bipiperidin]-1’-yl)-2-chloro-9-(4-fluorobenzyl)-9H-purine]",94.6 nM,,
"CNCCc1cnc[nH]1 [[^3H]N^α-methylhistamine, reference compound]",,,Kd (human histamine H3R; radioligand used at 2 nM at human H3R): 3.08 nM
"Fc1ccc(Cn2cnc3c(N4CCC(N5CCCCC5)CC4)ncnc32)cc1 [Compound 3a, 6-([1,4’-Bipiperidin]-1’-yl)-9-(4-fluorobenzyl)-9H-purine]",105 nM,105 nM,
Clc1nc(N2CCC(N3CCCCC3)CC2)c2ccn(Cc3c(Cl)cccc3Cl)c2n1 [III],,,Ki (H3R): 6 nM
Clc1nc(N2CCC(N3CCCCC3)CC2)c2ccn(Cc3ccc4ccccc4c3)c2n1 [II],,,Ki (H3R): 126 nM
